The values below come from patent publication US8664221B2 (Santen Pharmaceutical Co., Ltd., priority 2008, dated 2014).

For orientation: Emax means the maximal effect, on the per cent scale that the assay sets.

For test [1], the system named is IL-6 production induced by lipopolysaccharide (LPS) in human corneal epithelial cells (HCE-T). Kind of test: Inhibition of LPS-induced IL-6 production in human corneal epithelial cells (GR agonist activity). In kind it is cell-based. Particulars: Corneal epithelial cell, 10 μL of 100 μM test compound solution per well, 4 hours incubation, efficacy relative to DEX. On the procedure:
In order to evaluate a GR agonist activity of the present compound, the inhibitory effects on the IL-6 production induced by lipopolysaccharide (LPS) in human corneal epithelial cells. IL-6 levels in the conditioned medium were measured using the HTRF human IL-6 Kit (boehringer-Ingelheim, Cat No. 62IL6PEB), and the procedure was carried out according to the protocol attached to the kit. Hereinafter, the specific method will be described.
LPS solution: After LPS was dissolved in phosphate buffer solution (hereinafter referred to as PBS(−)), the resulting solution was diluted with 10% FBS-DMEM/F12 medium, whereby a 1 μg/mL LPS solution was prepared.
After a test compound was dissolved in dimethylsulfoxide (hereinafter referred to as DMSO), the resulting solution was diluted with 10% FBS-DMEM/F12 medium, whereby a 100 μM test compound solution was prepared. A 100 μM DEX solution was prepared by the same method, and the inhibitory ratio of IL-6 production of DEX was evaluated to use for calculating efficacy (% DEX).
Used cell: SV40-immortalized human corneal epithelial cells (HCE-T) (RIKEN)
1) HCE-T cells were harvested, and seeded at 2.0×10^4 cells/0.1 mL/well in a 96-well plate.
2) After incubation overnight, the medium was removed and a 80 μL of new 10% FBS-DMEM/Ham's F12 medium was added into each well.
3) A 10 μL of test compounds solution was added into each well.
4) A 10 μL of LPS solution was added into each well.
5) As a negative control, a 10 μL of 10% FBS-DMEM/Ham's F12 medium was added into each well instead of a test compound solution and a LPS solution.
6) As a positive control, a 10 μL of 10% FBS-DMEM/Ham's F12 medium containing 1% DMSO was added into each well instead of a test compound solution.
7) After 4 hours incubation, supernatants were collected and IL-6 levels in the supernatants were quantitated using the HTRF human IL-6 Kit.
8) The inhibition ratio of IL-6 production (%) was calculated according to the following equation.
The inhibition ratio of IL-6 production (%) was calculated according to the following equation. The inhibition ratio of IL-6 production (%)=100×{1−(IL-6 level in each group−mean value of IL-6 level in negative control)/(mean value of IL-6 level in positive control−mean value of IL-6 level in negative control)} (%)
Furthermore, the inhibition ratio of IL-6 production (efficacy (% DEX)) was also calculated according to the following equation. Efficacy(% DEX)=100×{(mean value of IL-6 inhibition in compound-treated group)/(mean value of IL-6 inhibition in DEX-treated group)} (%) (Results and Discussion)

The subject of test [2] is allergic conjunctivitis model in mice. Description: Inhibitory effect on vascular hyper-permeability in allergic conjunctivitis model. The class given is in vivo. The settings on record: male BALB/c mice, ovalbumin-sensitized; 1% (W/V) suspension instilled 15 min, 1 hr and 3 hrs before ovalbumin; Evans blue dye leakage; mean of 6 eyes. On the procedure:
In order to evaluate anti-allergic effect of the present compound, the inhibitory effect on the vascular hyper-permeability in allergic conjunctivitis model in mice was examined. This effect was calculated based on dye leakages of vehicle-treated group (control group) and test compound-treated group.
By adding 0.5% polysorbate 80/saline to the test compound, a 1% (W/V) test compound suspension was prepared.
1) Ovalbumin absorbed on aluminum hydroxide gel was dissolved in saline (20 μg ovalbumin/mL), and male BALB/c mice, 6 weeks old, were actively sensitized to the antigen by intraperitoneal injections of 500 μL of it.
2) On the 6th day from sensitization, sensitized mice were boosted by additional intraperitoneal injections of 500 μL ovalbumin absorbed on aluminum hydroxide gel (20 μg ovalbumin/mL).
3) On the 11th day, 12th day, 13th day, 14th day and 15th day from the first sensitization, allergic conjunctivitis were induced by instillations to the right eyes of the mice of […] of 50% glycerol solution containing 15% (W/V) ovalbumin.
4) […] of test compound suspension per eye was instilled to the right eye of the above mice 15 min, 1 hr and 3 hrs before ovalbumin instillation (three times) on the 15th day from sensitization. In vehicle-treated group (control group), the mice were instilled with 0.5% polysorbate 80/saline in substitution for test compound suspension.
5) Just before ovalbumin instillation on the 15th day from sensitization, all animals received a tail intravenous injection of 0.1% Evans blue dye. The right periocular tissues of the mice, which were the leaked parts of dye, were collected 30 min after ovalbumin instillation. The dye was extracted from the tissues with the dye extraction liquid. Then the absorbance of the dye extract was measured. The dye leakage was calculated from the absorbance value, and the inhibition ratio of the vascular hyper-permeability of test compound-treated group was calculated according to calculation equation 1. The inhibition ratio of the vascular hyper-permeability of test compound-treated group (%)=(1−Ax/Ao)×100 (Calculation Equation 1) • Ao: Dye leakage in vehicle-treated group (control group) • Ax: Dye leakage in test compound-treated group (Test Results and Discussion)

Test [3] has as its system carrageenan-induced paw edema model in rats. Description: Carrageenan-induced paw edema model. In kind it is in vivo. The settings on record: female Lewis rat; 10 mg/kg oral, 30 minutes before carrageenan; paw volume 3 hr after injection; read-out: Inhibition ratio of paw edema (%). On the procedure:
The inhibitory effect for paw edema using carrageenan-induced paw edema model in rats is known as one of the general methods for testing the inhibitory effect on inflammation on the joint and the like. Therefore, the inhibitory effect of the present compound for paw edema was carried out, the inhibition rate of paw edema was calculated, and then the anti-inflammatory effect of the present compound was evaluated based on the rate. The concrete method of the test is described below.
A 2 mg/mL test compound suspension was prepared by adding 1% methyl cellulose (base) to the test compound.
1) The weight and right hind paw volume of female Lewis rat (8˜10 weeks) were measured before drug administration.
2) The test compound suspension was administered at 10 mg/kg to the test compound group. Meanwhile, 1% methyl cellulose was administered orally at 5 mL/kg to the sham-operation group and vehicle group (control group).
3) After 30 minutes from oral administration, 0.1 mL of a 1% w/v carrageenan/distilled water solution was subcutaneously injected into right foot pad. 0.1 mL of distilled water was subcutaneously injected for sham-operation group.
4) The right hind paw volume was measured 3 hr after injection of carrageenan or distilled water.
(Formulation Concerning Estimation of Drug Activity) The increase ratio of paw volume (%)=100×(right hind paw volume 3 hr after injection of carrageenan or distilled water (mL)−right hind paw volume before the test compound administration (mL))/right hind paw volume before the test compound administration (mL) (Calculation Equation 1) The inhibition ratio of paw edema (%)=100−100×(the increase ratio of paw volume of each test compound group (%)−the increase ratio of paw volume of sham-operation group (%))/(the increase of paw volume of vehicle group (%)−the increase of paw volume of sham-operation group (%)) (Calculation Equation 2) (Test Results and Discussion)
(In general: Carrageenan injected into the paw causes an acute inflammation.)

`COc1cc(OS(=O)(=O)C(C)C)ccc1-c1ccc2c(c1COC(=O)c1ccc(C)s1)N(C)C(=O)C(C)(C)N2` [Compound No. 1-23, 7-(4-Isopropylsulfonyloxy-2-methoxyphenyl)-8-(5-methylthiophen-2-ylcarbonyloxymethyl)-1,3,3-trimethyl-3,4-dihydro-1H-quinoxalin-2-one] showed an Emax in test [1] of 83%. The “The inhibition ratio of the vascular hyper-permeability (%)” value (shortened to “The inhibition ratio … (%)”) in test [2] was determined as 10%.

`COc1cc(OS(=O)(=O)C2CC2)ccc1-c1ccc2c(c1COc1cc([N+](=O)[O-])ccc1C)N(C)C(=O)C(C)(C)N2` [Compound No. 1-32, 7-(4-Cyclopropylsulfonyloxy-2-methoxyphenyl)-8-(2-methyl-5-nitrophenoxymethyl)-1,3,3-trimethyl-3,4-dihydro-1H-quinoxalin-2-one]: the Emax in test [1] came out at 90%. The inhibition in vivo at 10 mg/kg in test [3] is 61%.

Take `COc1cc(OS(=O)(=O)C(C)C)ccc1-c1ccc2c(c1COc1cc(F)ccc1C)N(C)C(=O)C(C)(C)N2` [Compound No. 1-7, 8-(5-Fluoro-2-methylphenoxymethyl)-7-(4-isopropylsulfonyloxy-2-methoxyphenyl)-1,3,3-trimethyl-3,4-dihydro-1H-quinoxalin-2-one]: in test [1], the Emax was determined as 94%. Also, in test [3], the inhibition in vivo at 10 mg/kg turned out to be 43%.

In test [1], `CCS(=O)(=O)Oc1ccc(-c2ccc3c(c2COc2cc(F)ccc2C)N(C)C(=O)C(C)(C)N3)c(OC)c1` [Compound No. 1-6, 7-(4-Ethylsulfonyloxy-2-methoxyphenyl)-8-(5-fluoro-2-methyl-phenoxymethyl)-1,3,3-trimethyl-3,4-dihydro-1H-quinoxalin-2-one] had an Emax of 86%. For the same compound, in test [3], the inhibition in vivo at 10 mg/kg was 63%.

`COc1cc(OS(=O)(=O)C2CCCC2)ccc1-c1ccc2c(c1COc1cc(F)ccc1C)N(C)C(=O)C(C)(C)N2` [Compound No. 1-16, 7-(4-Cyclopentylsulfonyloxy-2-methoxyphenyl)-8-(5-f1uoro-2-methylphenoxymethyl)-1,3,3-trimethly-3,4-dihydro-1H-quinoxalin-2-one]: in test [1], the Emax worked out at 91%. The “The inhibition ratio … (%)” value in test [2] is reported as 18%.

As for `COc1cc(OS(=O)(=O)CCC(F)(F)F)ccc1-c1ccc2c(c1COc1cc(F)ccc1C)N(C)C(=O)C(C)(C)N2` [Compound No. 1-12, 8-(5-Fluoro-2-methylphenoxymethyl)-7-[2-methoxy-4-(3,3,3-trifluoro-propylsulfonyloxy)phenyl]-1,3,3-trimethyl-3,4-dihydro-1H-quinoxlin-2-one], the Emax in test [1] is 100%. Moreover, the “The inhibition ratio … (%)” value in test [2] amounted to 15%.

In turn, `COc1cc(OS(=O)(=O)C2CC2)ccc1-c1ccc2c(c1CNc1cc(F)ccc1C)N(C)C(=O)C(C)(C)N2` came in with an Emax in test [1] of 81%. In addition, the inhibition in vivo at 10 mg/kg in test [3] stood at 52%.

As for `CCCS(=O)(=O)Oc1ccc(-c2ccc3c(c2COc2cc(F)ccc2C)N(C)C(=O)C(C)(C)N3)c(OC)c1` [Compound No. 1-2, 8-(5-Fluoro-2-methylphenoxymethyl)-7-(2-methoxy-4-propyl-sulfonyloxyphenyl)-1,3,3-trimethyl-3,4-dihydro-1H-quinoxalin-2-one], in test [1], the Emax was 91%. In addition, the “The inhibition ratio … (%)” value in test [2] was 37%.

With `CCCCS(=O)(=O)Oc1ccc(-c2ccc3c(c2COc2cc(F)ccc2C)N(C)C(=O)C(C)(C)N3)c(OC)c1` [Compound No. 1-5, 7-(4-Butylsulfonyloxy-2-methoxyphenyl)-8-(5-fluoro-2-methyl-phenoxymethyl)-1,3,3-trimethyl-3,4-dihydro-1H-quinoxalin-2-one], in test [1], the Emax was determined as 88%. Further, in test [2], the “The inhibition ratio … (%)” value is 30%.

As for `CCCS(=O)(=O)Oc1ccc(-c2ccc3c(c2CNc2cc(F)ccc2C)N(C)C(=O)C(C)(C)N3)c(OC)c1` [Compound No. 1-44, 8-(5-Fluoro-2-methylphenylaminomethyl)-7-(2-methoxy-4-propyl-sulfonyloxyphenyl)-1,3,3-trimethyl-3,4-dihydro-1H-quinoxalin-2-one], the Emax in test [1] stood at 88%. Further, the “The inhibition ratio … (%)” value in test [2] was found to be 22%.

In test [1], `COc1ccccc1NCc1c(-c2ccc(OS(=O)(=O)C(C)C)cc2OC)ccc2c1N(C)C(=O)C(C)(C)N2` [Compound No. 2-5] had an Emax of 74%. In addition, the inhibition in vivo at 10 mg/kg in test [3] was found to be 40%.

In test [1], `COc1ccccc1NCc1c(-c2ccc(OS(=O)(=O)C3CCCC3)cc2OC)ccc2c1N(C)C(=O)C(C)(C)N2` [Compound No. 2-6, 7-(4-Cyclopentylsulfonyloxy-2-methoxypheny1)-8-(2-methoxyphenylaminomethyl)-1,3,3-trimethyl-3,4-dihydro-1H-quinoxalin-2-one] came in with an Emax of 82%. For the same compound, the “The inhibition ratio … (%)” value in test [2] was 13%.

Regarding `CCCS(=O)(=O)Oc1ccc(-c2ccc3c(c2COC(=O)c2ccc(C)s2)N(C)C(=O)C(C)(C)N3)c(OC)c1` [Compound No. 1-22, 7-(2-Methoxy-4-propylsulfonyloxyphenyl)-8-(5-methylthiophen-2-ylcarbonyloxymethyl)-1,3,3-trimethyl-3,4-dihydro-1H-quinoxalin-2-one], in test [1], the Emax came out at 99%. Also, the “The inhibition ratio … (%)” value in test [2] turned out to be 21%.

Take `COc1cc(OS(=O)(=O)CC(C)C)ccc1-c1ccc2c(c1COc1cc(F)ccc1C)N(C)C(=O)C(C)(C)N2` [Compound No. 1-11, 8-(5-Fluoro-2-methylphenoxymethyl)-7-(4-isobutylsulfonyloxy-2-methoxyphenyl)-1,3,3-trimethyl-3,4-dihydro-1H-quinoxalin-2-one]: the Emax in test [1] was 99%. In addition, the “The inhibition ratio … (%)” value in test [2] is 20%.
